In patent publication US20220339143A1, “TAK-925 FOR USE IN TREATING NARCOLEPSY” (Takeda Pharmaceutical Company Limited, priority 2019, published 2022):
Where two headings read alike, the source gives them in different places.

Tests used:
[1] = Plasma concentrations in healthy subjects (Cohort 4); format: in vivo; conditions: human, intravenous, 112 mg
Protocol: Pharmacokinetics: Concentrations of Compound A in plasma, and CSF, and pharmacokinetics parameters.
Following a single 9-hour IV infusion of 112 mg to healthy adult subjects in Cohort 4, Compound A plasma concentration-time profile was consistent with that observed in Cohort 1. At 6 hours after the start of infusion, mean ratio CSF/plasma concentration of Compound A was estimated to be about 2.8%.

[2] = Multiple-dose PK of intravenous Compound A in patients with NT1 (Cohorts B1, B2), plasma; format: in vivo, human; conditions: for clearance: read-out: CL, Mean (converted)
Protocol: The purpose of the study was to evaluate the safety, tolerability, pharmacokinetics and pharmacodynamics of Compound A after multiple IV administration in patients with NT1. NT1 patients were evaluated in Cohort B1 and B2 (Table 19). Compound A or placebo were administered via IV infusion over 9 hours once daily for 7 days. A total of 13 patients with NT1 were treated with Compound A or placebo (4, 4, and 5 subjects in the placebo, Compound A 11 mg, and Compound A 44 mg groups, respectively). In this part, potential efficacy of Compound A was evaluated with MWT, ESS, KSS, night-time PSG (NPSG), cataplexy frequency assessment, and PGI-C as an exploratory PD assessment.
Blood samples used for PK analysis of Compound A was collected according to Table 20. See also FIG. 12 for whole schedules of study procedures.

[3] = human, plasma, intravenous, 11 mg, Day 7

COC(=O)N1CCC[C@H](NS(C)(=O)=O)[C@@H]1CO[C@H]1CC[C@@H](c2ccccc2)CC1 [Compound A, methyl (2R,3S)-3-((methylsulfonyl)amino)-2-(((cis-4-phenylcyclohexyl)oxy)methyl)piperidine-1-carboxylate]
concentration at 0.5 h ([1]; Mean): 119 ng/mL | concentration at 0.5 h ([1]; Median): 116 ng/mL | concentration at 1 h ([1]; Mean): 162 ng/mL | concentration at 1 h ([1]; Median): 156 ng/mL | concentration at 1.5 h ([1]; Mean): 193 ng/mL | concentration at 1.5 h ([1]; Median): 194 ng/mL | concentration at 2 h ([1]; Mean): 186 ng/mL | concentration at 2 h ([1]; Median): 183 ng/mL | concentration at 3 h ([1]; Mean): 216 ng/mL | concentration at 3 h ([1]; Median): 218 ng/mL | concentration at 4 h ([1]; Mean): 234 ng/mL | concentration at 4 h ([1]; Median): 224 ng/mL | concentration at 6 h ([1]; Mean): 234 ng/mL | concentration at 6 h ([1]; Median): 227 ng/mL | concentration at 8 h ([1]; Mean): 177 ng/mL | concentration at 8 h ([1]; Median): 168 ng/mL | concentration at 9 h ([1]; Mean): 184 ng/mL | concentration at 9 h ([1]; Median): 182 ng/mL | AUCtau D, Mean ([2]; 11 mg, Day 1): 15.00 ng·h/mL/mg | Cmax D Mean ([2]; 11 mg, Day 1): 1.660 ng/mL/mg | Vax, Mean ([2]; 11 mg, Day 1): 129.6 L | AUCtau D, Mean ([2]; 11 mg, Day 7): 16.70 ng·h/mL/mg | Cmax D Mean ([2]; 11 mg, Day 7): 1.868 ng/mL/mg | Cmin, Mean ([2]; 11 mg, Day 7): 0.3258 ng/mL | PTR, Mean ([2]; 11 mg, Day 7): 57.07 | Vx, Mean ([2]; 11 mg, Day 7): 313.0 L | t½z Mean ([2]; 11 mg, Day 7): 3.595 h | Cmin, Geo Mean ([2]; 11 mg, Day 7 (N of Geo Mean 3)): 0.4061 ng/mL | AUCtau D, Mean ([2]; 44 mg, Day 1): 15.70 ng·h/mL/mg | Vax, Mean ([2]; 44 mg, Day 1): 135.0 L | Vz, Mean ([2]; 44 mg, Day 1): 316.2 L | AUCtau D, Mean ([2]; 44 mg, Day 7): 16.56 ng·h/mL/mg | Cmax D Mean ([2]; 44 mg, Day 7): 1.858 ng/mL/mg | Cmin, Mean ([2]; 44 mg, Day 7): 1.327 ng/mL | PTR, Mean ([2]; 44 mg, Day 7): 70.28 | Vx, Mean ([2]; 44 mg, Day 7): 375.2 L | t½z Mean ([2]; 44 mg, Day 7): 4.222 h | drug accumulation ([2]; QD dosing, 9-hour IV infusion daily for 7 days): no drug accumulation was observed | dose proportionality of mean plasma systemic exposures ([2]; daily 9-hour IV infusions, 11 and 44 mg): generally increased in a dose proportional manner | AUC(0-inf) ([2]; human, plasma, intravenous, 11 mg, Day 1, read-out: AUCinf, Geo Mean): 166 ng·h/mL | AUC(0-inf) ([2]; human, plasma, intravenous, 11 mg, Day 1, read-out: AUCinf, Mean): 167 ng·h/mL | AUC(0-t) ([2]; human, plasma, intravenous, 11 mg, Day 1, read-out: AUClast, Geo Mean): 164 ng·h/mL | AUC ([2]; human, plasma, intravenous, 11 mg, Day 1, read-out: AUCtau, Geo Mean): 164 ng·h/mL | AUC ([2]; human, plasma, intravenous, 11 mg, Day 1, read-out: AUCtau, Mean): 165 ng·h/mL | Cmax ([2]; human, plasma, intravenous, 11 mg, Day 1, read-out: Cmax, Geo Mean): 18.2 ng/mL | Cmax ([2]; human, plasma, intravenous, 11 mg, Day 1, read-out: Cmax, Mean): 18.3 ng/mL | AUC(0-t) ([2]; human, plasma, intravenous, 11 mg, Day 7, read-out: AUClast, Geo Mean): 182 ng·h/mL | AUC ([2]; human, plasma, intravenous, 11 mg, Day 7, read-out: AUCtau, Geo Mean): 183 ng·h/mL | AUC ([2]; human, plasma, intravenous, 11 mg, Day 7, read-out: AUCtau, Mean): 184 ng·h/mL | Cmax at 7 days ([2]; human, plasma, intravenous, 11 mg, Day 7, read-out: Cmax, Geo Mean): 20.5 ng/mL | AUC(0-inf) ([2]; human, plasma, intravenous, 44 mg, Day 1, read-out: AUCinf, Mean): 697 ng·h/mL | AUC(0-t) ([2]; human, plasma, intravenous, 44 mg, Day 1, read-out: AUClast, Geo Mean): 682 ng·h/mL | AUC ([2]; human, plasma, intravenous, 44 mg, Day 7, read-out: AUCtau, Geo Mean): 723 ng·h/mL | AUC ([2]; human, plasma, intravenous, 44 mg, Day 7, read-out: AUCtau, Mean): 729 ng·h/mL | Cmax at 7 days ([2]; human, plasma, intravenous, 44 mg, Day 7, read-out: Cmax, Geo Mean): 81.2 ng/mL | Vd ([2]; human, plasma, intravenous, 11 mg, Day 1, read-out: Vz, Mean): 310 L | Tmax at 7 days [2, 3]: 5.17 h | clearance [2, 3]: 1010 mL/min | clearance ([2]; human, plasma, intravenous, 44 mg, Day 1): 1080 mL/min | Tmax ([2]; human, plasma, intravenous, 44 mg, Day 7): 4.93 h | AUC(0-t) ([2]; human, plasma, iv, 11 mg, Day 1, 9 h IV infusion QD, NT1, read-out: AUClast, Mean): 164 ng·h/mL
